Patent US9617244B2, “Antibacterial quinoline derivatives” (JANSSEN PHARMACEUTICA NV, priority 2012, dated 2017)
In brackets after ≈: the same amount, converted by molar mass.

What was measured:
[1] = system: Mycobacterium smegmatis (ATCC607); test: In-vitro anti-bacterial activity against strain M. Smegmatis ATCC607; assay type: cell-based; conditions: 90% inhibitory concentration for bacterial growth, Alamar Blue fluorescence; for IC90 MSM 607: 48 hours; for IC90: Mycolicibacterium smegmatis, ATCC607, 48 h, read-out: IC90 MSM 607
Summary of the method: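 IC90 (μg/ml) derived from Alamar Blue fluorescence (530/590 nm) after 48 h growth at 37 °C under 5% CO2. About 250 CFU per well in Mueller-Hinton broth faced five-fold serial compound dilutions in BSA-containing wells.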

[2] = system: Staphylococcus aureus (ATCC29213); test: In-vitro anti-bacterial activity, microtitre plate assay, IC90 determination (non-mycobacterial strains); assay type: cell-based; conditions: 90% inhibitory concentration for bacterial growth, resazurin fluorescence; for IC90 STA B29213: 24 hours; for IC90: Staphylococcus aureus, ATCC29213, 24 h, read-out: IC90 STA B29213
Summary of the method: (§1)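 Growth inhibition measured fluorometrically with resazurin (530/590 nm) after overnight 37 °C incubation under normal atmosphere. Bacteria added at roughly 100 TCID50 per well in Mueller-Hinton broth to five-fold compound dilution series; IC90 reported in μg/ml.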

[3] = system: Streptococcus pneumoniae (ATCC6305); test: as above; assay type: cell-based; conditions: 90% inhibitory concentration for bacterial growth, resazurin fluorescence; for IC90: Streptococcus pneumoniae, ATCC6305, 24 h, read-out: IC90 SPN 6305; for IC90 SPN 6305: 24 hours
Summary of the method: as §1

SMILES | IC90 MSM 607 [1] [µg/mL] | IC90 STA B29213 [2] [µg/mL] | IC90 [3] [µg/mL] | melting point [°C] | IC90 [1] [µg/mL] | IC90 [2] [µg/mL] | IC90 SPN 6305 [3] [µg/mL]
COc1nc2ccc(-c3cccnc3)cc2cc1C(c1cccc(Cl)c1)C1(O)CCNC(Cc2ccccc2)C1 (stereo not shown) [Compound 15] | 1.38 (≈ 2.51 µM) | 1.74 (≈ 3.16 µM) | 6.93 (≈ 12.6 µM) | 220 |  |  | 
COc1nc2ccc(S(C)(=O)=O)cc2cc1C(c1ccc(Cl)cc1)C1(O)CCNC(Cc2ccccc2)C1 (stereo not shown) [Compound 38] | 3.48 (≈ 6.31 µM) | 3.48 (≈ 6.31 µM) | 6.94 (≈ 12.6 µM) | 130 |  |  | 
COc1nc2ccc(Br)cc2cc1C(c1ccc(Cl)cc1)C1(O)CCNC(Cc2ccc(F)c(F)c2)C1 (stereo not shown) [Compound 39] |  |  | 5.24 (≈ 8.91 µM) | 106 | 0.93 (≈ 1.58 µM) | 1.17 (≈ 1.99 µM) | 
COc1nc2ccc(Br)cc2cc1C(c1ccc(Cl)cc1)C1(O)CCNCC1Cc1ccccc1 (stereo not shown) [Compound 41] | 3.48 (≈ 6.31 µM) | 3.48 (≈ 6.31 µM) |  |  |  |  | 6.95 (≈ 12.6 µM)
O=c1[nH]c2ccc(Br)cc2cc1C(c1cccc(Cl)c1)C1(O)CCNC(Cc2ccccc2)C1 (stereo not shown) [Compound 86] | 4.07 (≈ 7.57 µM) | 1.82 (≈ 3.38 µM) | 4.56 (≈ 8.48 µM) |  |  |  | 
CSc1nc2ccc(Br)cc2cc1C(c1ccc(Cl)cc1)C1(O)CCNC(Cc2ccccc2)C1 (stereo not shown) [Compound 87] | 2.85 (≈ 5.02 µM) | 3.58 (≈ 6.3 µM) | 7.15 (≈ 12.6 µM) | 227 |  |  | 
CSc1nc2ccc(Br)cc2cc1C(c1ccc(Cl)cc1)C1(O)CCNC(Cc2ccccc2)C1 (stereo not shown) [Compound 88] | 1.66 (≈ 2.92 µM) | 2.63 (≈ 4.63 µM) |  |  |  |  | 8.32 (≈ 14.6 µM)
COc1nc2ccc(SC)cc2cc1C(c1ccc(Cl)cc1)C1(O)CCNC(Cc2ccccc2)C1 (stereo not shown) [Compound 90] |  |  | 8 (≈ 15.4 µM) |  | 3.18 (≈ 6.13 µM) | 3.18 (≈ 6.13 µM) | 
COc1nc2ccc(SC)cc2cc1C(c1ccc(Cl)cc1)C1(O)CCNC(Cc2ccccc2)C1 (stereo not shown) [Compound 91] | 1.64 (≈ 3.16 µM) | 1.64 (≈ 3.16 µM) |  | 214 |  |  | 4.63 (≈ 8.92 µM)
COc1nc2ccc(SC)cc2cc1C(c1ccc(Cl)cc1)C1(O)CCNC(Cc2ccccc2)C1 (stereo not shown) [Compound 92] | 1.64 (≈ 3.16 µM) | 1.64 (≈ 3.16 µM) |  | 114 |  |  | 6.54 (≈ 12.6 µM)
COc1nc2ccc(SC)cc2cc1C(c1ccc(Cl)cc1)C1(O)CCNC(Cc2ccccc2)C1 (stereo not shown) [Compound 93] | 2.01 (≈ 3.87 µM) | 3.18 (≈ 6.13 µM) |  |  |  |  | 5.66 (≈ 10.9 µM)
COc1nc2ccc(Cl)cc2cc1C(c1ccc(Cl)cc1)C1(O)CCNC(Cc2ccccc2)C1 (stereo not shown) [Compound 94] | 1.76 (≈ 3.47 µM) | 3.13 (≈ 6.17 µM) | 4.95 (≈ 9.75 µM) |  |  |  | 

Further lines, results first:

IC90 MSM 607 [1] [µg/mL] | IC90 STA B29213 [2] [µg/mL] | IC90 [3] [µg/mL] | melting point [°C] | IC90 [1] [µg/mL] | IC90 [2] [µg/mL] | IC90 SPN 6305 [3] [µg/mL] | SMILES
1.12 (≈ 1.99 µM) | 1.78 (≈ 3.16 µM) | 6.32 (≈ 11.2 µM) |  |  |  |  | COc1nc2ccc(Br)cc2cc1C(c1ccc(SC)cc1)C1(O)CCNC(Cc2ccccc2)C1 (stereo not shown) [Compound 98]
1.42 (≈ 2.52 µM) | 1.78 (≈ 3.16 µM) |  | 214 |  |  | 6.32 (≈ 11.2 µM) | COc1nc2ccc(Br)cc2cc1C(c1ccc(SC)cc1)C1(O)CCNC(Cc2ccccc2)C1 (stereo not shown) [Compound 99]
1.59 (≈ 2.82 µM) | 3.56 (≈ 6.32 µM) |  |  |  |  | 6.32 (≈ 11.2 µM) | COc1nc2ccc(Br)cc2cc1C(c1ccc(SC)cc1)C1(O)CCNC(Cc2ccccc2)C1 (stereo not shown) [Compound 101]
3.76 (≈ 6.31 µM) | 3.76 (≈ 6.31 µM) | 7.5 (≈ 12.6 µM) | 145 |  |  |  | COc1nc2ccc(Br)cc2cc1C(c1ccc(S(C)(=O)=O)cc1)C1(O)CCNC(Cc2ccccc2)C1 (stereo not shown) [Compound 102]
0.93 (≈ 1.58 µM) | 1.66 (≈ 2.82 µM) |  | 124 |  |  | 6.60 (≈ 11.2 µM) | COc1nc2ccc(Br)cc2cc1C(c1ccc(Cl)cc1)C1(O)CCNC(Cc2ccc(F)c(F)c2)C1 (stereo not shown) [Compound 112]
1.01 (≈ 1.72 µM) | 2.02 (≈ 3.44 µM) |  |  |  |  | 4.04 (≈ 6.87 µM) | COc1nc2ccc(Br)cc2cc1C(c1ccc(Cl)cc1)C1(O)CCNC(Cc2ccc(F)c(F)c2)C1 (stereo not shown) [Compound 113]
0.98 (≈ 1.78 µM) |  | 4.38 (≈ 7.94 µM) |  |  | 1.75 (≈ 3.17 µM) |  | COc1nc2ccc(Br)cc2cc1C(c1ccc(Cl)cc1)C1(O)CCNCC1Cc1ccccc1 (stereo not shown) [Compound 114]
 |  | 4.16 (≈ 7.67 µM) |  | 2.08 (≈ 3.83 µM) | 3.3 (≈ 6.08 µM) |  | COc1nc2ccc(Br)cc2cc1C(c1ccc(C#N)cc1)C1(O)CCNC(Cc2ccccc2)C1 (stereo not shown) [Compound 115]
1.72 (≈ 3.17 µM) | 3.42 (≈ 6.3 µM) |  | 153 |  |  | 6.83 (≈ 12.6 µM) | COc1nc2ccc(Br)cc2cc1C(c1ccc(C#N)cc1)C1(O)CCNC(Cc2ccccc2)C1 (stereo not shown) [Compound 116]
 |  | 5.52 (≈ 10 µM) |  | 2.77 (≈ 5.02 µM) | 3.48 (≈ 6.31 µM) |  | COc1nc2ccc(Br)cc2cc1C(c1ccc(Cl)cc1)C1(O)CCNCC1Cc1ccccc1 (stereo not shown) [Compound 117]
 |  | 3.62 (≈ 6.73 µM) |  | 3.62 (≈ 6.73 µM) | 3.62 (≈ 6.73 µM) |  | O=c1[nH]c2ccc(Br)cc2cc1[C@@H](c1ccc(Cl)cc1)[C@]1(O)CCNC(Cc2ccccc2)C1 (stereo partly shown) [Compound 121]
3.62 (≈ 6.73 µM) | 2.88 (≈ 5.35 µM) |  |  |  |  | 3.62 (≈ 6.73 µM) | O=c1[nH]c2ccc(Br)cc2cc1[C@@H](c1ccc(Cl)cc1)[C@]1(O)CCNC(Cc2ccccc2)C1 (stereo partly shown) [Compound 122]
